Experimental data from patent US8193372B2, “Phosphothiophene and phosphothiazole HCV polymerase inhibitors” (Idenix Pharmaceuticals, Inc., priority 2009, dated 2012).

Columns and labels:
in vitro = conditions: human
[1] = tested on: HCV Con1 subgenomic replicon of genotype 1b (GS4.1 cells); assay: microbe, parasite or virus in culture; assay type: cell-based, HCV genotype 1b; conditions: Hepatitis C virus; for EC50: 72 h

| Compound | CC50 (in vitro) | IC50 [1] | EC50 [1] |
| --- | --- | --- | --- |
| CCOP(=O)(Nc1cc(-c2ccc(F)cc2)sc1C(=O)O)c1ccc(C)cc1C (stereo not shown) [Compound 22, 2-Thiophenecarboxylic acid, 3-N-[(2,4-dimethyl-phenyl)-phosphonamidateethyl ester]-5-(4-fluorophenyl)] | > 8.3 µM | 0.1 to 8.3 µM | 0.1 to 8.3 µM |
| COP(=O)(Nc1cc(-c2ccc([N+](=O)[O-])cc2)sc1C(=O)O)c1ccc(C)cc1C (stereo not shown) [Compound 127] | > 8.3 µM | < 0.1 µM | 0.1 to 8.3 µM |
| COP(=O)(Nc1cc(-c2ccc(C#Cc3cscn3)cc2)sc1C(=O)O)c1ccc(C)cc1C (stereo not shown) [Compound 139] | > 8.3 µM | < 0.1 µM | < 0.1 µM |
| CCOP(=O)(Cc1cc(-c2ccc(-c3cc4ncccn4n3)cc2)sc1C(=O)O)c1ccc(C)cc1C (stereo not shown) [Compound 175] | > 8.3 µM | < 0.1 µM | 0.1 to 8.3 µM |
| COP(=O)(Nc1cc(-c2ccc(Cl)cc2Cl)sc1C(=O)O)c1ccc(C)cc1C (stereo not shown) [Compound 151] | > 8.3 µM | 0.1 to 8.3 µM | > 8.3 µM |
| COP(=O)(Nc1cc(-c2ccc(-c3ccc(Cl)c(Cl)c3)cc2)sc1C(=O)O)c1ccc(C)cc1C (stereo not shown) [Compound 147] | > 8.3 µM | 0.1 to 8.3 µM | 0.1 to 8.3 µM |
| CCOP(=O)(Nc1cc(-c2ccc(C#N)cc2)sc1C(=O)O)c1ccc(Cl)cc1Cl (stereo not shown) [Compound 29, 2-Thiophenecarboxylic acid, 3-N-[(2,4-dichlorophenyl)-phosphonamidateethyl ester]-5-(4-cyanophenyl)] | > 8.3 µM | – | > 8.3 µM |
| COP(=O)(Nc1cc(-c2ccc(CC(C)C)cc2)sc1C(=O)O)c1ccc(C)cc1C (stereo not shown) [Compound 154] | > 8.3 µM | 0.1 to 8.3 µM | > 8.3 µM |
| CCOC(=O)OC(C)N(c1cc(-c2ccc(Cl)cc2)sc1C(=O)OC(C)OC(=O)OC)P(=O)(OC)c1ccc(C)cc1C (stereo not shown) [Compound 108] | > 8.3 µM | > 8.3 µM | 0.1 to 8.3 µM |
| COP(=O)(Nc1cc(-c2ccc(C#Cc3ccccc3)cc2)sc1C(=O)O)c1ccc(C)cc1C (stereo not shown) [Compound 146] | > 8.3 µM | < 0.1 µM | < 0.1 µM |
| COP(=O)(Nc1cc(-c2ccc(-c3cc4nc(C)ccn4n3)cc2)sc1C(=O)O)c1ccc(C)cc1C (stereo not shown) [Compound 105] | > 8.3 µM | < 0.1 µM | < 0.1 µM |
| CCOP(=O)(Nc1cc(-c2ccc(Cl)cc2)sc1C(=O)O)c1ccc(Cl)cc1C (stereo not shown) [Compound 136] | > 8.3 µM | < 0.1 µM | 0.1 to 8.3 µM |
| COP(=O)(Nc1cc(-c2ccc(-c3cc4ccccc4o3)cc2)sc1C(=O)O)c1ccc(C)cc1C (stereo not shown) [Compound 125] | > 8.3 µM | < 0.1 µM | < 0.1 µM |
| COc1cc(-c2ccc(-c3cc(NP(=O)(OC)c4ccc(C)cc4C)c(C(=O)O)s3)cc2)cc(OC)c1OC (stereo not shown) [Compound 123] | > 8.3 µM | 0.1 to 8.3 µM | > 8.3 µM |
| CCOP(=O)(Nc1cc(-c2ccc(-c3cc4ncccc4o3)cc2)sc1C(=O)O)c1ccc(Cl)cc1Cl (stereo not shown) [Compound 150] | > 8.3 µM | < 0.1 µM | < 0.1 µM |
| COP(=O)(Nc1cc(-c2ccc(Cl)cc2)sc1C(N)=O)c1ccc(C)cc1C (stereo not shown) [Compound 111] | > 8.3 µM | > 8.3 µM | > 8.3 µM |
| Cc1ccc(P(=O)(Nc2cc(-c3ccc(Cl)cc3)sc2C(=O)O)OC(C)C)c(C)c1 (stereo not shown) [Compound 89] | > 8.3 µM | 0.1 to 8.3 µM | 0.1 to 8.3 µM |
| CCOP(=O)(Nc1cc(-c2ccc(Cl)cc2)sc1C(=O)O)C1CC=C(C)CC1 (stereo not shown) [Compound 117] | > 8.3 µM | 0.1 to 8.3 µM | > 8.3 µM |
| COP(=O)(Nc1cc(-c2ccc(C#CCC(C)C)cc2)sc1C(=O)O)c1ccc(C)cc1C (stereo not shown) [Compound 104] | > 8.3 µM | 0.1 to 8.3 µM | > 8.3 µM |
| COP(=O)(Nc1cc(-c2cccc(F)c2)sc1C(=O)O)c1ccc(C)cc1C (stereo not shown) [Compound 88] | > 8.3 µM | 0.1 to 8.3 µM | 0.1 to 8.3 µM |
| COP(=O)(Nc1cc(-c2ccc(C#CC3CCCC3)cc2)sc1C(=O)O)c1ccc(C)cc1C (stereo not shown) [Compound 102] | > 8.3 µM | 0.1 to 8.3 µM | > 8.3 µM |
| COC(=O)c1sc(-c2ccc(Cl)cc2)cc1NP(=O)(OC)c1ccc(C)cc1C (stereo not shown) [Compound 140] | > 8.3 µM | – | > 8.3 µM |
| COP(=O)(Nc1cc(-c2ccc(-c3c(C)noc3C)cc2)sc1C(=O)O)c1ccc(C)cc1C (stereo not shown) [Compound 128] | > 8.3 µM | 0.1 to 8.3 µM | > 8.3 µM |
| COC(=O)c1sc(-c2ccc(F)cc2)cc1NP(=O)(OC)c1ccc(C)cc1C (stereo not shown) [Compound 172] | > 8.3 µM | > 8.3 µM | > 8.3 µM |
| CCOP(=O)(c1ccc(C)cc1C)N(c1cc(-c2ccc(F)cc2)sc1C(=O)O)C(C)C (stereo not shown) [Compound 33, 2-Thiophenecarboxylic acid, 3-N-isopropyl-N-[(2,4-dimethyl-phenyl)-phosphonamidateethyl ester]-5-(4-fluorophenyl)] | > 8.3 µM | 0.1 to 8.3 µM | 0.1 to 8.3 µM |
| COP(=O)(Nc1cc(-c2ccccc2F)sc1C(=O)O)c1ccc(C)cc1C (stereo not shown) [Compound 80] | > 8.3 µM | 0.1 to 8.3 µM | > 8.3 µM |

| Compound | CC50 (in vitro) | IC50 [1] | EC50 [1] |
| --- | --- | --- | --- |
| CCOP(=O)(Nc1cc(-c2ccc(Cl)c(Cl)c2)sc1C(=O)O)c1ccc(Cl)cc1Cl (stereo not shown) [Compound 161] | > 8.3 µM | 0.1 to 8.3 µM | > 8.3 µM |
| COP(=O)(Nc1cc(-c2ccc(Cl)cc2)sc1C(=O)O)c1ccc(Cl)cc1C (stereo not shown) [Compound 134] | > 8.3 µM | < 0.1 µM | 0.1 to 8.3 µM |
| CCOP(=O)(Nc1cc(-c2ccc(F)cc2)sc1C(=O)O)c1ccc(Cl)cc1Cl (stereo not shown) [Compound 23] | > 8.3 µM | 0.1 to 8.3 µM | > 8.3 µM |
| COP(=O)(Nc1cc(-c2ccccc2)sc1C(=O)O)c1ccccc1 (stereo not shown) [Compound 25, 2-Thiophenecarboxylic acid, 3-N-(phenyl-phosphonamidatemethyl ester)-5-phenyl] | > 8.3 µM | > 8.3 µM | > 8.3 µM |
| COP(=O)(Nc1cc(-c2ccc(-c3ccccc3F)cc2)sc1C(=O)O)c1ccc(C)cc1C (stereo not shown) [Compound 124] | > 8.3 µM | 0.1 to 8.3 µM | 0.1 to 8.3 µM |
| COP(=O)(Nc1cc(-c2ccc(Br)cc2)sc1C(=O)O)c1ccc(C)cc1C (stereo not shown) [Compound 141] | > 8.3 µM | < 0.1 µM | 0.1 to 8.3 µM |
| COP(=O)(c1ccc(C)cc1C)N(C)c1cc(-c2ccc(-c3cc4ncccc4o3)cc2)sc1C(=O)O (stereo not shown) [Compound 145] | > 8.3 µM | < 0.1 µM | < 0.1 µM |
| COP(=O)(Nc1cc(-c2cc3ccccc3o2)sc1C(=O)O)c1ccc(C)cc1C (stereo not shown) [Compound 96] | > 8.3 µM | < 0.1 µM | 0.1 to 8.3 µM |
| COP(=O)(Nc1cc(-c2cc3ccccc3s2)sc1C(=O)O)c1ccc(C)cc1C (stereo not shown) [Compound 97] | > 8.3 µM | < 0.1 µM | 0.1 to 8.3 µM |
| CCOP(=O)(Nc1cc(-c2ccc(F)cc2)sc1C(=O)OC)c1ccc(C)cc1C (stereo not shown) [Compound 173] | > 8.3 µM | > 8.3 µM | > 8.3 µM |
| COP(=O)(Nc1cc(-c2ccc(C#CC3CC3)cc2)sc1C(=O)O)c1ccc(C)cc1C (stereo not shown) [Compound 118] | > 8.3 µM | < 0.1 µM | 0.1 to 8.3 µM |
| CCOP(=O)(Cc1cc(-c2ccc(F)cc2)sc1C(=O)O)c1ccc(C)cc1C (stereo not shown) [Compound 179] | > 8.3 µM | 0.1 to 8.3 µM | > 8.3 µM |
| COP(=O)(Nc1cc(-c2ccc(Cl)cc2)sc1C(=O)O)c1ccc(Cl)cc1F (stereo not shown) [Compound 133] | > 8.3 µM | 0.1 to 8.3 µM | 0.1 to 8.3 µM |
| COP(=O)(Nc1cc(-c2ccc(-c3cc4ncccc4o3)cc2)sc1C(=O)O)C1CC=C(C)CC1 (stereo not shown) [Compound 83] | > 8.3 µM | < 0.1 µM | 0.1 to 8.3 µM |
| COc1ccc(-c2cc(NP(=O)(OC)c3ccc(C)cc3C)c(C(=O)O)s2)cc1 (stereo not shown) [Compound 149] | > 8.3 µM | < 0.1 µM | 0.1 to 8.3 µM |
| CCOP(=O)(Nc1cc(-c2cc3ccccc3s2)sc1C(=O)O)c1ccc(Cl)cc1Cl (stereo not shown) [Compound 157] | > 8.3 µM | 0.1 to 8.3 µM | > 8.3 µM |
| COP(=O)(Nc1cc(-c2ccc(-c3ccc(C(F)(F)F)cc3)cc2)sc1C(=O)O)c1ccc(C)cc1C (stereo not shown) [Compound 129] | > 8.3 µM | < 0.1 µM | 0.1 to 8.3 µM |
| COP(=O)(Nc1cc(-c2ccc(-c3cc4ncccn4n3)cc2)sc1C(=O)OCc1ccccc1)c1ccc(C)cc1C (stereo not shown) [Compound 112] | > 8.3 µM | 0.1 to 8.3 µM | 0.1 to 8.3 µM |
| COP(=O)(Nc1cc(-c2ccccc2)sc1C(=O)O)c1ccc(C)cc1C (stereo not shown) [Compound 27, 2-Thiophenecarboxylic acid, 3-N-[(2,4-dimethyl-phenyl)-phosphonamidatemethyl ester]-5-phenyl] | > 8.3 µM | < 0.1 µM | 0.1 to 8.3 µM |
| COP(=O)(Nc1cc(-c2ccc(C#Cc3ccsc3)cc2)sc1C(=O)O)c1ccc(C)cc1C (stereo not shown) [Compound 103] | > 8.3 µM | < 0.1 µM | < 0.1 µM |
| COP(=O)(Nc1cc(-c2ccc(-c3ccc(OCc4ccccc4)nc3)cc2)sc1C(=O)O)c1ccc(C)cc1C (stereo not shown) [Compound 122] | > 8.3 µM | 0.1 to 8.3 µM | > 8.3 µM |
| COC(=O)c1sc(-c2ccc(Br)cc2)cc1NP(=O)(OC)c1ccc(C)cc1C (stereo not shown) [Compound 148] | > 8.3 µM | > 8.3 µM | > 8.3 µM |
| COP(=O)(Cc1cc(-c2ccc(-c3cc4ncccc4o3)cc2)sc1C(=O)O)c1ccc(C)cc1C (stereo not shown) [Compound 174] | > 8.3 µM | < 0.1 µM | < 0.1 µM |
| COP(=O)(Nc1cc(-c2ccc(C#Cc3cncn3C)cc2)sc1C(=O)O)c1ccc(C)cc1C (stereo not shown) [Compound 101] | > 8.3 µM | < 0.1 µM | 0.1 to 8.3 µM |
| CCOP(=O)(Nc1cc(-c2ccc(Cl)cc2)sc1C(=O)O)c1ccc(Cl)cc1Cl (stereo not shown) [Compound 163] | > 8.3 µM | 0.1 to 8.3 µM | 0.1 to 8.3 µM |
| COP(=O)(Nc1cc(-c2ccc(-c3cc4ncccc4o3)cc2)sc1C(=O)O)c1ccc(Cl)cc1F (stereo not shown) [Compound 119] | > 8.3 µM | < 0.1 µM | < 0.1 µM |
